Results: ChEMBL document CHEMBL1157539, “Thousands of chemical starting points for antimalarial lead identification” (Nature, 2010)

Tested on: Plasmodium falciparum
Test: GSK_TCMDC: Inhibition of Plasmodium falciparum 3D7 in whole erythrocytes, using parasite LDH activity as an index of growth.
Assay type: functional, organism-based
Details: Plasmodium falciparum, 3D7

Compound	XC50 [nM]
CCN1CCC(N(Cc2ccc(-c3ccc(C(F)(F)F)cc3)cc2)C(=O)Cn2c(CCc3cccc(F)c3F)cc(=O)c3ccccc32)CC1	832
CCNC(C)(C)CN(Cc1ccc(-c2ccc(C(F)(F)F)cc2)cc1)C(=O)Cn1c(SCc2ccc(F)cc2)nc(=O)c2c1CCC2	991
CCN1CCN(c2ccc(Nc3c4ccccc4nc4ccccc34)cc2)CC1	718
Cc1[nH]c(C)c(-c2ccc(-c3ccc(Cl)cc3)cc2)c(=O)c1Cl	215
CC(C)(C)c1ccc(CN2CCC(NC(=O)c3ccc(-c4cccc(F)c4)s3)CC2)cc1	1090
O=c1c2ccc(F)cc2sn1-c1ccc(Cl)cc1	1150
CC(C)(C)CN1C(=O)C(c2ccccc2)(c2ccccc2)N=C1N	515
COc1cccc(C=NNc2cc(C)nc3c(OC)cccc23)c1	578
COC1(C)Oc2ccc3cccc([N+](=O)[O-])c3c2C1=O (configuration not stated)	635
Cc1cc(=O)c2cc(-c3ccc(OC(F)(F)F)cc3)ccc2[nH]1	476
COc1ccc(O)cc1/C=N/Nc1ccnc2cc(Cl)ccc12	544
O=c1[nH]c2c(cc1CNC1CCCCC1)c(-c1cccc(F)c1)nn2-c1ccccc1	945
O=c1cc(NCCCCNCc2cccc(Br)c2)[nH]c2ccccc12	729
CN1CCN(CCCN(Cc2cccc(-c3ccc(CNCc4ccc5c(c4)OCO5)cc3)c2)C(=O)Nc2ccccc2)CC1	681
CC(C)CNC(=O)c1cncc(-c2ccc(CNC3Cc4ccccc4C3)cc2)c1	698
O=C(Cc1ccc(NC(=O)c2ccc(O)c(-c3ccc(Cl)c(Cl)c3)c2)cc1)NCCc1ccc(Cl)c(Cl)c1	717
CCCCCCCc1c(C)nc2ccccc2c1O	206
CC(=O)c1ccc(-c2cccc3c(CC(=O)Nc4ccc5nccc(N6CCN(C)CC6)c5c4)cccc23)cc1	498
O=C(NCC(c1ccc(C(F)(F)F)cc1)N1CCCC1)c1cc(-c2ccncc2)c(-c2cccc(O)c2)o1 (configuration not stated)	1060
N#Cc1ccc(NC2(C(=O)N3CCN(c4cccc(Cl)c4)CC3)CC2)c2ccccc12	1150
COc1cccc(-c2cnc(N)c(-c3nc4ccc(F)cc4[nH]3)c2)c1	850
O=C(Nc1cccc(Cl)c1)c1cnc(N2CCN(c3ccncc3)CC2)c(Cl)c1	963
Oc1ccc2nc(NCCCc3ccccc3)nc(NCCCc3ccccc3)c2c1	398
O=C(NCCN1CCCCC1)c1ccc(CNC(=O)c2ccc(O)c(-c3cccc(C(F)(F)F)c3)c2)cc1	886

Compound	XC50 [nM]
O=C(/C=C/c1ccc(Cl)c(Cl)c1)NCCCCCN1CCC(NC(=O)Nc2ccc(F)c(F)c2)CC1	842
O=C(Nc1ccc(-c2ccc(-c3nc4ccccc4[nH]3)s2)cc1)Nc1ccc(F)c(F)c1F	194
Fc1ccc2[nH]c(-c3cccc(-c4ccc(CN5CCCCC5)cc4)c3)nc2c1	163
Oc1ccccc1CN1CCCC(COC(c2ccc(F)cc2)c2ccc(F)cc2)C1 (configuration not stated)	775
CCCNC(=O)c1ccnc(-c2ccc(CNC3Cc4ccccc4C3)cc2)c1	940
COc1ccc(CNCc2ccccc2)cc1-c1ccc(S(=O)(=O)NCCN2CCCC2)s1	674
COc1ccccc1CCNc1nc(C)cc(N[C@@H](CC(C)C)C(=O)Nc2ccccc2)n1	1280
COc1cc2c(C3CCN(CC4CCN(C(=O)/C=C/c5ccc(Cl)c(Cl)c5)CC4)CC3)c[nH]c2cn1	730
CC(C)(C(=O)Nc1ccc(C2CCC(NCC3CC3)CC2)c(Cl)c1)c1ccc(C(F)(F)F)cc1 (configuration not stated)	965
CCCN(CCC)C(=O)c1cc(C(=O)N[C@@H](Cc2ccccc2)[C@H](O)CNC(C)(C)c2cccc(C(F)(F)F)c2)cc(N2CCCCS2(=O)=O)c1	36.2
CCC1CN2CCc3c([nH]c4ccccc34)C2CC1CC1NCCc2cc(OC)c(OC)cc21 (configuration not stated)	836
O=C(C=Cc1ccc(Cl)c(Cl)c1)NCCCCCN1CCC(CCNC(=O)c2cccc3ccccc23)CC1	1590
CCCc1cc(Cc2cnc(N)nc2N)cc2c1OC(C)C2C (configuration not stated)	673
O=C(NCC1CCC(CNCCCc2ccccc2)CC1)c1cc(Cl)cc(Cl)c1 (configuration not stated)	846
Fc1ccc2[nH]c(-c3ccc(-c4ccc(CN5CCN(c6cnccn6)CC5)cc4)s3)nc2c1	617
CCCNCc1ccc(-c2ccc(CN(Cc3ccc4c(c3)OCO4)C(=O)Cc3cccnc3)cc2)nc1	862
OC(CNC1CCCCC1)Cn1c2ccccc2c2ccccc21 (configuration not stated)	991
CCOc1ccc(Cc2c(C)nc3nc(N)nc(N)c3c2C)cc1	1060
NS(=O)(=O)c1ccccc1Nc1nc(Nc2ccc(N3CCOCC3)cc2)nc2c1CCC2	667
Clc1ccc(CNCCCCCCCNCc2ccc(Cl)c(Cl)c2)cc1Cl	372
COc1cccc2cc(C(=O)N[C@@H](CC(C)C)C(=O)N[C@H](/C=N/NC(=O)Cc3cccnc3)CCc3ccccc3)oc12	951
Cc1c(CCNC(=O)CCCN2CC(C)CC(C)C2)c2ccccc2n1C (configuration not stated)	1270
COc1cccc(C2=CC(c3ccccc3)n3ncc(C(=O)Nc4ccc(Cl)cc4)c3N2)c1 (configuration not stated)	1060
CCCNc1nc(NCc2c(C)cccc2C)nc(NC(C)(C)C)n1	862

Compound	XC50 [nM]
CCCCN1CC[C@@H](CCC(O)c2cc(OCCC)nc3ccc(OC)cc23)[C@@H](CC)C1 (some centres not stated)	356
CC(C)c1ccc(Nc2nc(NCCc3c[nH]cn3)nc(NCc3ccccc3)n2)cc1	687
Cn1ncc2c3c(CCN4CCC(NCc5cc6c(cn5)OCCO6)CC4)c(Cl)cnc3ccc21	775
Cc1cc(N[C@@H](Cc2ccccc2)C(=O)NCCCOC(C)C)nc(NCC2CCCCC2)n1	875
Cc1ccc(NC(=O)Nc2ccc(S(=O)(=O)c3ccc(NC(=O)Nc4ccc(C)c(Cl)c4)cc3)cc2)cc1Cl	754
Cc1cc(CNCCCCCCNCc2ccc(-c3ccccc3)cc2)ccc1O	897
Cc1[nH]cnc1CSCCN/C(=N\C#N)NCCCCCCCCN/C(=N/C#N)NCCSCc1nc[nH]c1C	1270
CCOCc1cnc(C)nc1CNC(=O)c1c(C)[nH]c2ccc(C)cc12	1010
COc1cccc(NC(=O)[C@H](C)n2c(=O)[nH]c3ccccc3c2=O)c1	764
O=C(Nc1ccc(S(=O)(=O)N2CCCC2)cc1)c1cc(-c2cccnc2)nc2ccc(Cl)cc12	300
O=S(=O)(NC1=NCCC1)c1cccc(Nc2nc(C(F)(F)F)nc3ccccc23)c1	945
Cc1ccc(CCC(C)NCC(O)c2cccc(Cl)c2)cc1 (configuration not stated)	804
COc1cccc(NC(=O)Nc2ccc(C)c(-c3ccc(C(=O)Nc4ccncc4)cc3)c2)c1	520
COc1c(C2CCN(CCCCNC(=O)c3cccc(-c4ccc(C(F)(F)F)cc4)c3)CC2)ccc2c1CCCC2	777
Cc1cccc2nc(-c3cccc(-c4cccc(NC(=O)c5csnn5)c4)c3)[nH]c12	304
CN1CCCC(OC(=O)c2ccccc2)C1 (configuration not stated)	756
COc1ccccc1NC(=O)NC1CCN(CCCCCNC(=O)/C=C/c2ccc(Cl)c(Cl)c2)CC1	746
Cc1ccc(CNC(=O)[C@H](CC(C)C)Nc2cc(C)nc(NCc3ccccc3C)n2)cc1	952
Cc1ccc2c(O)c([N+](=O)[O-])c(O)nc2c1	422
CC(C)CCNc1nc(NCCCc2ccccc2)c2cc(O)ccc2n1	166
CN1CCC(Oc2ccc(CN3CC[C@H](NC(=O)c4ccc(Cl)c(Cl)c4)C3)c3ccccc23)C1 (some centres not stated)	876
CCc1ccc(NC(=O)c2ccc(CN3CCCN(Cc4ccc(C)s4)CC3)cc2)cc1	1150
COc1ccc(O)cc1Cc1cnc2nc(N)nc(N)c2c1C	8.25
Nc1nc(N)c2cc(Sc3ccc4ccccc4c3)ccc2n1	17.1
